# Data: the supplement of paper PMC10011410
# ± gives the standard deviation of the averaged measurements.
# Legend:
# U-2 OS [1] = experiment: AUC of culture confluence over time (live-cell imaging) (AUC (confluence % x time)); higher = more confluent culture (less growth inhibition)
# Procedure, shortened: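 Live-cell imaging tracked confluence of U-2 OS cells grown in F-12K medium plus 10% FBS. After seeding at 750 cells per well in 384-well plates, cells received compounds by pin tool 24 h later, mostly at 20, 10 and 5 μM, with 0.2% DMSO. Plates stayed at 37 °C and were imaged every 4 h for up to 60 h. Each value is the area under the confluence-versus-time curve.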
# U-2 OS [2] = experiment: cell painting activity score (Mahalanobis distance from DMSO wells); higher = stronger morphological phenotype; details: 24 h
# Procedure, shortened: (§1)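 In this cell painting assay, roughly 1,500 U-2 OS cells per well in 384-well plates were pin-tool treated at 37 °C for 24 h, typically at six 2-fold steps from 20 μM down to 625 nM. Cells were stained with MitoTracker, concanavalin A, phalloidin, wheat germ agglutinin, Hoechst and SYTO 14, imaged on an Opera Phenix, and analysed in CellProfiler with normalization to same-plate DMSO cells. Reported values are means of four replicate plates, with the activity score defined as the Mahalanobis distance from DMSO wells and cell count defined relative to DMSO wells.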
# U-2 OS [3] = experiment: intracellular GSH:GSSG ratio (calculated); higher = more reduced glutathione pool; details: 24 h
# Procedure, shortened: (§2)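 Pin-tool treatment of U-2 OS cells began 24 h after seeding at 750 per well in white low-volume 384-well plates, using 20, 10 and 5 μM for most compounds and 0.4% DMSO, for 24 h at 37 °C. For the glutathione plates, GSH/GSSG-Glo reagents were diluted three-fold in PBS, and each plate held GSH standards. Total glutathione, GSSG and viability (CellTiter-Glo) were taken as luminescence on separate plates and are reported relative to vehicle or as a GSH:GSSG ratio after background and row/column correction.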
# U-2 OS [4] = experiment: total intracellular glutathione (GSH + GSSG) relative to DMSO (% of control); higher = more glutathione; details: 24 h
# Procedure, shortened: as §2
# U-2 OS [5] = experiment: relative cell count vs DMSO (cell painting) (fraction of DMSO control); higher = more cells remaining (less cytotoxic); details: 24 h
# Procedure, shortened: as §1
# U-2 OS [6] = experiment: cell viability (CellTiter-Glo) relative to DMSO (% of control); higher = more viable; details: 24 h
# Procedure, shortened: as §2
SMILES,AUC of culture confluence over time (U-2 OS [1]; 5 µM),AUC of culture confluence over time (U-2 OS [1]; 10 µM),AUC of culture confluence over time (U-2 OS [1]; 20 µM),cell painting activity score (U-2 OS [2]; 0.625 µM),cell painting activity score (U-2 OS [2]; 1.25 µM),cell painting activity score (U-2 OS [2]; 2.5 µM),cell painting activity score (U-2 OS [2]; 5 µM),cell painting activity score (U-2 OS [2]; 10 µM),cell painting activity score (U-2 OS [2]; 20 µM),intracellular GSH:GSSG ratio (U-2 OS [3]; 5 µM),intracellular GSH:GSSG ratio (U-2 OS [3]; 10 µM),intracellular GSH:GSSG ratio (U-2 OS [3]; 20 µM),total intracellular glutathione (U-2 OS [4]; 5 µM),total intracellular glutathione (U-2 OS [4]; 10 µM),total intracellular glutathione (U-2 OS [4]; 20 µM),relative cell count (U-2 OS [5]; 0.625 µM),relative cell count (U-2 OS [5]; 1.25 µM),relative cell count (U-2 OS [5]; 2.5 µM),relative cell count (U-2 OS [5]; 5 µM),relative cell count (U-2 OS [5]; 10 µM),relative cell count (U-2 OS [5]; 20 µM),cell viability (U-2 OS [6]; 5 µM),cell viability (U-2 OS [6]; 10 µM),cell viability (U-2 OS [6]; 20 µM),AUC of culture confluence over time (U-2 OS [1]; 40 µM),AUC of culture confluence over time (U-2 OS [1]; 80 µM),cell painting activity score (U-2 OS [2]; 40 µM),cell painting activity score (U-2 OS [2]; 80 µM),intracellular GSH:GSSG ratio (U-2 OS [3]; 40 µM),intracellular GSH:GSSG ratio (U-2 OS [3]; 80 µM),total intracellular glutathione (U-2 OS [4]; 40 µM),total intracellular glutathione (U-2 OS [4]; 80 µM),relative cell count (U-2 OS [5]; 40 µM),relative cell count (U-2 OS [5]; 80 µM),cell viability (U-2 OS [6]; 40 µM),cell viability (U-2 OS [6]; 80 µM),cell painting activity score (U-2 OS [2]; 0.15624 µM),cell painting activity score (U-2 OS [2]; 0.3124 µM),relative cell count (U-2 OS [5]; 0.15624 µM),relative cell count (U-2 OS [5]; 0.3124 µM)
O=C1CCC(=O)N1c1ccc(O)cc1,48.1,42.4,43.3,4.12,3.43,3.81,3.52,4.26,2.95,43,32.2,56.3,105 ± 13,87.4 ± 4.5,102 ± 5.2,1.02,0.976,0.966,0.904,1.03,1.04,107 ± 6.3,106 ± 7.5,105 ± 5.4,,,,,,,,,,,,,,,,
O=C(/C(C(N1CC2=CC=CC=C2)=O)=C/C3=C(C)C=C(O)C=C3C)N(CC4=CC=CC=C4)C1=O,50.9,49.8,46.2,3.82,5.14,5.14,4.49,9.6,10.8,21.3,22.8,29.1,99.8 ± 4.9,98.5 ± 2.1,104 ± 5.8,0.901,0.839,0.861,0.841,0.776,0.292,97 ± 6.9,98.1 ± 2.9,102 ± 6.1,34.6,12.1,8.64,16.5,19.1,12.4,77.3 ± 11,27.7 ± 8,0.419,0.0657,70 ± 23,14.7 ± 7.9,,,,
O=C1CC(Nc2ccccc2)C(=O)N1Cc1ccccc1 (stereo not drawn),48,38.3,43.1,3.91,3.72,3.99,4.03,4.46,3.59,,33.5,34.3,92.2 ± 3.2,94.5 ± 4.7,102 ± 6.3,1.01,1.03,1.03,0.984,0.96,1.05,116 ± 4.3,106 ± 4.3,100 ± 4.4,,,,,,,,,,,,,,,,
O=S1(=O)CCc2ccccc21,51,51.8,54.2,4.91,3.74,4.94,4.01,4.61,6.81,26,25.7,22.4,104 ± 1.9,109 ± 7.8,106 ± 7.5,1.03,0.988,1.02,1.05,1.02,1.02,101 ± 3.4,101 ± 5.8,102 ± 2.9,,,,,,,,,,,,,,,,
Nc1nc(-c2ccccc2)[n+](-c2ccccc2)s1,39.6,44.4,43.3,7.03,3.42,2.65,3.42,3.28,9.72,25.1,18.2,2.7,113 ± 5.1,117 ± 8.2,26.8 ± 7.4,1.06,1.11,1.04,1.13,1.08,0.605,106 ± 3.7,105 ± 6.1,16 ± 10,,,,,,,,,,,,,,,,
O=S1(=O)CC(N2CCCC2)c2ccccc21 (stereo not drawn),49.4,,,5.04,4.39,4.11,3.43,,,30.8,37.7,28.5,97.6 ± 3.1,98.8 ± 6.1,102 ± 5.3,0.972,0.969,0.957,0.962,,,103 ± 3.5,103 ± 6.5,109 ± 6.8,,,,,,,,,,,,,4.13,3.66,0.962,0.979
O=[N+]([O-])c1cc(Br)c2nsnc2c1Sc1ncnc2nc[nH]c12,12.5,14.1,18,5.04,8.02,7.08,16.2,17.9,17.8,9.74,2.76,4.35,56.4 ± 8.3,34.6 ± 12,7.7 ± 3.1,0.89,0.788,0.814,0.205,0.0623,0.0543,29.6 ± 6.5,6.03 ± 3.7,0.936 ± 0.27,,,,,,,,,,,,,,,,
Cn1c(SC2=CS(=O)(=O)c3ccccc32)nnc1-c1ccc(O)cc1,22.8,21.2,22.3,6.03,8.31,10.7,13.1,16.2,13.2,10.2,4.41,2.8,113 ± 51,82.1 ± 41,48.7 ± 27,0.933,0.993,0.903,0.761,0.527,0.379,96.8 ± 4.4,66 ± 4.1,71.2 ± 4.6,,,,,,,,,,,,,,,,
CC1(C)CC[C@]2(C(=O)n3ccnc3)CC[C@]3(C)[C@H](C(=O)C=C4[C@@]5(C)C=C(C#N)C(=O)C(C)(C)[C@@H]5CC[C@]43C)[C@@H]2C1,16,14.8,13.9,17.6,23.5,35.7,33.9,32,26.6,3.45,4.45,0.635,36.9 ± 4.2,38 ± 6.2,38.6 ± 5.8,0.329,0.22,0.121,0.0924,0.0552,0.0644,43.9 ± 1.6,43.8 ± 5.2,94.4 ± 8.6,,,,,,,,,,,,,,,,
Cl.Cl.O=C(O)Cn1nnc(-c2ccc(CN(CCCCOc3ccc(CN4CCCC4)cc3)CCc3ccccc3)cc2)n1,48.1,49,47.5,4.83,5.3,7.08,6.29,6.41,11.1,20.2,19.8,15.4,99.4 ± 2.1,97 ± 3.3,95.5 ± 4.5,1.2,1.1,1.12,1.13,1.14,1.01,96.5 ± 5.3,100 ± 3.5,98.8 ± 6.4,19.9,12.3,11.5,32,14.3,14,96.7 ± 2.5,72.7 ± 5.7,0.376,0.0195,88.9 ± 11,30.9 ± 15,,,,
C=CC(=O)Nc1ccc(CN2C(=O)N(c3cc(OC)cc(OC)c3)Cc3cnc(Nc4ccc(N5CCN(C)CC5)cc4)nc32)cc1,44.2,37.3,27.8,6.58,8.57,8.77,10.2,12.1,22.1,13.6,16.7,12.9,96.1 ± 3.3,93.1 ± 5,98.9 ± 4.6,0.983,0.946,0.955,0.951,0.83,0.673,91 ± 4.1,79.2 ± 3.3,69.2 ± 8.3,,,,,,,,,,,,,,,,
C[C@H]1CCC/C=C/[C@@H]2C[C@H](O)C[C@H]2[C@H](O)/C=C/C(=O)O1,18.6,18.1,18.2,15.2,14.7,15.3,15.9,15.9,17.6,26.9,17.4,16.1,54 ± 2.2,41.5 ± 18,45.2 ± 18,0.653,0.645,0.645,0.629,0.562,0.479,62.9 ± 3.7,64.5 ± 1.9,63.8 ± 3.9,,,,,,,,,,,,,,,,
CC(=O)OC1C(c2ccc(=O)oc2)C2(C)CCC3C(CCC4CC(O)CCC43C)C23OC13 (stereo not drawn),17.6,19.4,17.6,17.1,16.2,18,19,18.5,18.8,4.48,3.04,2.21,13.9 ± 1.2,12.1 ± 1.1,11.5 ± 0.76,0.327,0.27,0.264,0.242,0.229,0.224,21.4 ± 1.7,21.5 ± 2.2,23.7 ± 3.1,,,,,,,,,,,,,,,,
